Measurements reported in ChEMBL document CHEMBL4513101, “Naegleria gruberi Pathogen Box compounds screening” (2021).
Calls of active or inactive are those of the source. No stated cut-off is given here; in the data, active = inhibition of 80% or more and inactive = less.

What follows are compounds tested on Naegleria gruberi (assay: microbe, parasite or virus in culture). Conditions: NEG-M, CONC 10 uM.
Type: functional
Description: Growth inhibiting activity of Naegleria gruberi in vitro

SMILES | inhibition at 10 µM
Cc1ccc(Oc2ccc(NC(=O)CNc3ccccc3N3CCCC3=O)cc2)cc1 | 18.8% (not active)
CCc1ccc([C@@H]2C[C@H](C(F)(F)F)n3ncc(C(=O)NCc4ccc(OC)cc4)c3N2)cc1 | 29% (not active)
CN1CCN(c2nccc3nc(-c4ccc(F)c(F)c4)[nH]c23)CC1 | 35% (not active)
COc1ccccc1C(C)NCC(=O)Nc1cc(C(F)(F)F)ccc1Cl (stereo not drawn) | 49.5% (not active)
CCOC(=O)c1c(NC(=O)c2c(F)c(F)c(F)c(F)c2F)sc(C(N)=O)c1C | 5.8% (not active)
Cc1ccc2[nH]c3c(NCCN(C)C)ncnc3c2c1 | 23.7% (not active)
c1ccc(Oc2ccc(-c3cc(C4CCOCC4)[nH]n3)cc2)cc1 | 34.2% (not active)
NS(=O)(=O)c1cncc(-c2ccc3nccc(-c4cn[nH]c4)c3n2)c1 | 0% (not active)
Cc1nn(C)c(C)c1NS(=O)(=O)c1c(Cl)cc(-c2ccnc(N3CCNCC3)c2)cc1Cl | 58.2% (not active)
COc1cncc(-c2cncc(N3CCN(c4ccncc4)CC3)n2)c1 | 26.8% (not active)
O=C(NC1=NCCS1)c1sc2cc(F)ccc2c1Cl | 34.6% (not active)
O=C(Nc1ccnc(-c2cccnc2)n1)c1cc(C(F)(F)F)cc(C(F)(F)F)c1 | 44.3% (not active)
OCCc1ccc(Nc2nccc(-c3nnc4ccccn34)n2)cc1 | 18.7% (not active)
CCc1nn(C)c(C(=O)NCc2ccc(Oc3ccc(C)cc3)cc2)c1Cl [TOLFENPYRAD] | 93.3% (active)
O=C(Nc1ccc(C(F)(F)F)c(C(F)(F)F)c1)c1cc(Cl)ccc1O | 98.5% (active)
O=C(N[C@H](Cc1ccccc1)C(=O)Nc1ccccc1N1CCOCC1)c1cccs1 | 29.6% (not active)
CC(C)(C)n1nc(-c2ccccc2)c2c(N)ncnc21 | 55.1% (not active)
CC(C)NCC(=O)Nc1cccc(C(=O)Nc2cccc(C(F)(F)F)c2)c1 | 4.8% (not active)
Cc1ccc(-c2cc(C(=O)Nc3cccnc3)c3cc(Br)ccc3n2)cc1 | 16.8% (not active)
Cn1c(=O)c2c(S(C)(=O)=O)snc2n(C)c1=O | 72.3% (not active)
CS(=O)(=O)c1ccc(C(=O)N(CC2CCCO2)c2nc3ccccc3s2)cc1[N+](=O)[O-] (stereo not drawn) | 58.7% (not active)
CC1(C)Cc2c(c(N3CCOCC3)nc3snc(Br)c23)CO1 | 0% (not active)

SMILES | inhibition at 10 µM
CCn1cnc2c(Nc3cc(F)cc(F)c3)nc(C#N)nc21 | 83.2% (active)
CCc1ccc(S(=O)(=O)Nc2cc(CN3CCN(CCC(C)C)CC3)ccc2C)cc1 | 48.7% (not active)
Cc1ccc2oc(-c3cc(NC(=O)Cc4ccccc4)ccc3Cl)nc2c1 | 44.5% (not active)
O=C(C1CCN(c2cc(-n3cccc3)ncn2)CC1)N1CCc2ccccc2C1 | 13.5% (not active)
c1cncc(NCc2ccc(-c3cc4ccncc4cc3OC3CCNCC3)s2)c1 | 19.4% (not active)
Clc1ccc(CN2CCN(C3=NCCN3)CC2)cc1Cl | 23.3% (not active)
COc1ccc(-c2nn(C(C)C)c3ncnc(N)c23)cc1OC | 49.5% (not active)
CCC(=O)Nc1ccccc1C(=O)Nc1ccccn1 | 35.7% (not active)
CC(C)(C)OC(=O)N1CCC(Cn2nc(-c3cnc4ccccc4c3)c3c(N)ncnc32)CC1 | 57.8% (not active)
O=C(NCCc1ccccc1)c1cc(-c2cccnc2)cnc1NCC1CC1 | 37.7% (not active)
c1ccc(-c2[nH]c3ccccc3c2C(c2ccccn2)N2CCCC2)cc1 (stereo not drawn) | 32.7% (not active)
CCOC(=O)c1noc(N)c1-c1ccccc1 | 0% (not active)
O=C(NCc1cc(Cl)cc(Cl)c1)c1c(C(F)(F)F)nc2ccccn12 | 28.4% (not active)
O=C(Nc1ccc(F)c(-c2nc3cc(-c4ccccc4)cnc3[nH]2)c1)N1CCCC1 | 49.5% (not active)
O=C(NCc1nnc2n1CCCCC2)c1ccc(-c2ccc(F)cc2)o1 | 29.3% (not active)
O=C(c1ccco1)N(CCCn1ccnc1)c1nc2c(Cl)cccc2s1 | 68.6% (not active)
COc1cc(CN2CCC3(C=Cc4ccccc43)CC2)cc2c1OCO2 | 38.6% (not active)
CCOc1ccc2cc(-c3nn(CC4CCN(C)CC4)c4ncnc(N)c34)ccc2c1 | 28% (not active)
CNC(=O)c1nn(C)c2c1C(C)(C)Cc1cnc(Nc3ccc(N4CCN(C)CC4)cc3)nc1-2 [MILCICLIB] | 18.3% (not active)
COc1ccc2nccc(NC(=O)C3CCN(CCc4ccc(Cl)cc4)CC3)c2n1 | 18.8% (not active)
O=C(NC1CC1)c1ccc(N2CCC(Cc3ccccc3)CC2)nc1 | 59.1% (not active)
COc1ccc(Cl)cc1NC(=O)CN(C)C(=O)c1cnn(-c2ccccc2)n1 | 37.1% (not active)

SMILES | inhibition at 10 µM
C[C@H](c1ccc2c(c1)CCCC2)N(C)c1ncc2c(N)nc(N)nc2n1 | 29.6% (not active)
COc1ccc(CCN2CCC(NCc3cccc(N(C)C)c3)CC2)cc1 | 8.7% (not active)
COc1ccc(-c2nnc3ccc(-c4cccc(C(C)C)c4)cn23)cc1OC | 26.7% (not active)
Cc1nn2c(O)c3c(nc2c1-c1ccc(F)cc1)CCCC3 | 30.1% (not active)
C[C@]1(COc2ccc(N3CCC(Oc4ccc(OC(F)(F)F)cc4)CC3)cc2)Cn2cc([N+](=O)[O-])nc2O1 | 94.1% (active)
CC[C@@H]([C@H](C)O)n1ncn(-c2ccc(N3CCN(c4ccc(OC[C@@H]5CO[C@@](Cn6cncn6)(c6ccc(F)cc6F)C5)cc4)CC3)cc2)c1=O [POSACONAZOLE] | 84.8% (active)
C[C@H]1COc2c(N3CCN(C)CC3)c(F)cc3c(=O)c(C(=O)O)cn1c23 [LEVOFLOXACIN] | 0% (not active)
COCC(C)NC(=O)CSc1ncnc2sc(-c3ccccc3)cc12 (stereo not drawn) | 45.7% (not active)
CN(C)CCNC(=O)N1CCCN(c2ncnc3cc(-c4ccccc4)sc23)CC1 | 29.4% (not active)
CC(=O)NC[C@H]1CN(c2ccc(N3CCSCC3)c(F)c2)C(=O)O1 [SUTEZOLID] | 45.7% (not active)
CC(Oc1cccc(Cl)c1)C(=O)Nc1ccc2oc(-c3ccncc3)nc2c1 (stereo not drawn) | 35.9% (not active)
CN(C)c1cc(NC(=O)Nc2ccccc2)c2ccccc2n1 | 22.3% (not active)
Cc1[nH]c2ccccc2c1C(c1cccs1)N1CCN(C)CC1 (stereo not drawn) | 23.9% (not active)
Brc1c(-c2ccc3c(c2)OCO3)nc2ncccn12 | 39.1% (not active)
Nc1ncc(-c2cn[nH]c2)cc1-c1nc2cc(Cl)cnc2[nH]1 | 10.2% (not active)
Cc1cc(C2=NOC(c3cc(Cl)c(F)c(Cl)c3)(C(F)(F)F)C2)ccc1C(=O)NCc1ccc2c(c1)C(C)(C)OB2O (stereo not drawn) | 47.6% (not active)
O=C(Nc1cnc2ccccc2c1)c1cccc(-n2cnnn2)c1 | 9.8% (not active)
N#CCN(CCCCN1CCN(c2ccc(F)cc2)CC1)C(=O)OCc1ccccc1 | 21.3% (not active)
CC(Oc1ccccc1)C(=O)Nc1nc(-c2ccccn2)cs1 (stereo not drawn) | 32.3% (not active)
O=C(C1CCN(c2nnc(-n3cccc3)s2)CC1)N1CCC(Cc2ccccc2)CC1 | 31.1% (not active)
c1coc(CNc2nc(N3CCCCC3)nc3ccccc23)c1 | 56.5% (not active)
N#Cc1nc(-c2ccccc2)oc1S(=O)(=O)c1ccc(Cl)cc1 | 9.4% (not active)

SMILES | inhibition at 10 µM
c1ccc(Oc2ccc(-c3cc(N4CCNCC4)[nH]n3)cc2)cc1 | 0% (not active)
CCOC(=O)c1cc(-c2csc(Nc3c(C)cc(C)cc3C)n2)on1 | 33.4% (not active)
O=C(Nc1nnc(-c2ccc(Cl)s2)o1)c1ccc(Cl)s1 | 21.9% (not active)
CC(C)(C)C(=O)N(CCCCCCN1C[C@H](O)[C@@H](O)[C@H](O)[C@H]1CO)C1CCCCCC1 | 0.1% (not active)
O=C(NCCN1CCCC1)c1cc(NCCN2CCOCC2)nc2ccc(Cl)cc12 | 11% (not active)
CC(=O)N1CCN(c2ccc(Oc3ccc(Cl)cc3O)cc2)CC1 | 0% (not active)
NCCN(C(=O)c1ccc(Cl)cc1Cl)c1ccc(OCc2ccc(Cl)cc2)cc1 | 29.6% (not active)
O=C(Nc1c(O)cccc1-c1nc2c(C(=O)O)cccc2o1)c1cc(-c2ccccc2)on1 | 18.4% (not active)
COc1ccc(-c2cnc3ccc(NCc4ccc(S(N)(=O)=O)cc4)nn23)cn1 | 10.2% (not active)
O=C1COCc2ccc(Br)cc2N1Cc1ccc(C(F)(F)F)cc1 | 26.7% (not active)
COc1cccc(-n2nnnc2S(=O)(=O)Cc2ccccc2)c1 | 85.8% (active)
CCOc1ccc(-c2nc(NC(=O)CS(=O)(=O)c3ccccc3)sc2C)cc1 | 50.9% (not active)
CS(=O)(=O)N1CCC(Cn2nc(Cc3cccc4ccccc34)c3c(N)ncnc32)CC1 | 30.6% (not active)
Cc1ccc(S(=O)(=O)Nc2ccc(CN3CCN(C(=O)c4cccc(C#N)c4)CC3)cc2)cc1 | 19.9% (not active)
CCN(CC)S(=O)(=O)c1ccc(C(=O)Nc2cc(C)nn2-c2nc(C)c(C)c(=O)[nH]2)cc1 | 41.8% (not active)
Cc1cc2ccccc2n1CC(=O)N1CC(C(=O)N2CCCCC2)Oc2ccccc21 (stereo not drawn) | 52.5% (not active)
CC1CCCN(C(=O)C(C)Nc2cc(Cl)ccc2N2CCOCC2)C1 (stereo not drawn) | 43.8% (not active)
CO/C=C(/C(=O)OC)c1ccccc1Oc1cc(Oc2ccccc2C#N)ncn1 [AZOXYSTROBIN] | 33.7% (not active)
Cc1cc(C)c2cc(C(=O)NC3CCCCCCC3)[nH]c2c1 | 30.2% (not active)
Cc1ccc2nc(C)c(-c3ccn(Cc4ccccc4)n3)n2c1 | 9.5% (not active)
O=C(Nc1nnc(-c2ccc(Cl)cc2)o1)c1cccc(C(F)(F)F)c1 | 19.7% (not active)
O=C1[C@@H](Oc2ccccc2)[C@@H](c2ccc(Cl)cc2)N1CCn1cnc2c(NCc3ccccc3)ncnc21 | 0% (not active)
